# Key:
# Experiment in all cases: PROLiFiler-Cell Panel Screening (CellTiterGlo)
# Assay type in all cases: cell-based
# [1] = test system: A172; conditions: Homo sapiens, A 172; Brain, A172, 72 hours
# Description: (§1) For the assays, cells were seeded in white cell culture-treated flat and clear bottom 384-well multiwall plates and incubated at 37° C. overnight before the calix[4]arene of the formula (2) or the reference compound were added. After incubation for 72 hours at 37° C. at 5% or 10% CO2 depending on the medium, cell plates were equilibrated to room temperature (i.e. 20° C.) for one hour, CellTiterGlo® reagent from the firm Promega was added and luminescence was measured approximately an hour later using a luminometer.
# (§2) Raw data were converted into percent cell viability relative to the high and low control, which were set to 100% and 0%, respectively.
# [2] = test system: A498; conditions: Homo sapiens; Kidney, A498, 72 hours
# Description: as §1, §2
# [3] = test system: A549; conditions: Homo sapiens; Lung, A549, 72 hours
# Description: as §1, §2
# [4] = test system: AsPC-1; conditions: Homo sapiens, ASPC1; Pancreas, AsPC-1, 72 hours
# Description: as §1, §2
# [5] = test system: BEN; conditions: Lung, 72 hours
# Description: as §1, §2
# [6] = test system: BT-20; conditions: Homo sapiens; Breast, BT-20, 72 hours
# Description: as §1, §2
# [7] = test system: Caki-2; conditions: Homo sapiens; Kidney, Caki-2, 72 hours
# Description: as §1, §2
# [8] = test system: Colo 205; conditions: Homo sapiens; Colon, Colo 205, 72 hours
# Description: as §1, §2
# [9] = test system: DLD-1; conditions: Homo sapiens; Colon, DLD-1, 72 hours
# Description: as §1, §2
# [10] = test system: DV90; conditions: Homo sapiens, DV-90; Lung, DV90, 72 hours
# Description: as §1, §2
# [11] = test system: EFM-192A; conditions: Breast, 72 hours
# Description: as §1, §2
# [12] = test system: EFO-27; conditions: Homo sapiens; Ovary, EFO-27, 72 hours
# Description: as §1, §2
# [13] = test system: EPLC-272H; conditions: Homo sapiens, Lung, 72 hours
# Description: as §1, §2
# [14] = test system: H1299; conditions: Homo sapiens, NCI-H1299; Lung, H1299, 72 hours
# Description: as §1, §2
# [15] = test system: H460; conditions: Homo sapiens, NCI-H460; Lung, H460, 72 hours
# Description: as §1, §2
# [16] = test system: H4; conditions: Brain, H4, 72 hours
# Description: as §1, §2
# [17] = test system: HCC 1569; conditions: Homo sapiens, HCC1569; Breast, HCC 1569, 72 hours
# Description: as §1, §2
# [18] = test system: HCC827; conditions: Homo sapiens; Lung, HCC827, 72 hours
# Description: as §1, §2
# [19] = test system: HCT116; conditions: Homo sapiens, HCT-116; Colon, HCT116, 72 hours
# Description: as §1, §2
# [20] = test system: HT-1080; conditions: Homo sapiens; Fibrosarcoma, HT-1080, 72 hours
# Description: as §1, §2
# [21] = test system: HT-29; conditions: Homo sapiens; Colon, HT-29, 72 hours
# Description: as §1, §2
# [22] = test system: HuH7; conditions: Homo sapiens, Huh-7; Liver, HuH7, 72 hours
# Description: as §1, §2
# [23] = test system: JIMT-1; conditions: Homo sapiens; Breast, JIMT-1, 72 hours
# Description: as §1, §2
# [24] = test system: K562; conditions: Homo sapiens; Blood, K562, 72 hours
# Description: as §1, §2
# [25] = test system: KARPAS 299; conditions: Homo sapiens; Blood, KARPAS 299, 72 hours
# Description: as §1, §2
# [26] = test system: LOU-NH91; conditions: Lung, LOU-NH91, 72 hours
# Description: as §1, §2
# [27] = test system: LnCap; conditions: Homo sapiens, Prostate, 72 hours
# Description: as §1, §2
# [28] = test system: MDA MB 435; conditions: Homo sapiens; Skin, MDA MB 435, 72 hours
# Description: as §1, §2
# [29] = test system: MDA-MB-468; conditions: Homo sapiens; Breast, MDA-MB-468, 72 hours
# Description: as §1, §2
# [30] = test system: NCI-H1563; conditions: Homo sapiens; Lung, NCI-H1563, 72 hours
# Description: as §1, §2
# [31] = test system: SK-OV3; conditions: Homo sapiens, SK-OV-3; Ovary, SK-OV3, 72 hours
# Description: as §1, §2
# [32] = test system: SNU840; conditions: SNU-840; Ovary, SNU840, 72 hours
# Description: as §1, §2
# [33] = test system: SW480; conditions: Homo sapiens; Colon, SW480, 72 hours
# Description: as §1, §2
# [34] = test system: SW620; conditions: Homo sapiens, SW-620; Colon, SW620, 72 hours
# Description: as §1, §2
# [35] = test system: T84; conditions: Homo sapiens; Colon, T84, 72 hours
# Description: as §1, §2
# [36] = test system: U118MG; conditions: Homo sapiens, U-118-MG, Brain, 72 hours
# Description: as §1, §2
# [37] = test system: U87MG; conditions: Homo sapiens, U-87 MG, Brain, 72 hours
# Description: as §1, §2
Compound,IC50 [1] [nM],IC50 [2] [nM],IC50 [3] [nM],IC50 [4] [nM],IC50 [5] [nM],IC50 [6] [nM],IC50 [7] [nM],IC50 [8] [nM],IC50 [9] [nM],IC50 [10] [nM],IC50 [11] [nM],IC50 [12] [nM],IC50 [13] [nM],IC50 [14] [nM],IC50 [15] [nM],IC50 [16] [nM],IC50 [17] [nM],IC50 [18] [nM],IC50 [19] [nM],IC50 [20] [nM],other results
CCCOc1c2cccc1Cc1cccc(c1OCc1nccn1C)Cc1cccc(c1OCCC)Cc1cccc(c1OCc1nccn1C)C2 [(2)],1210,1720,1040,834,3680,1270,2610,1810,1080,2160,5450,1520,1470,1300,727,2900,2960,1720,950,1900,IC50 [21]: 1200 nM; IC50 [22]: 543 nM; IC50 [23]: 2700 nM; IC50 [24]: 1890 nM; IC50 [25]: 1480 nM; IC50 [26]: 652 nM; IC50 [27]: 1190 nM; IC50 [28]: 2770 nM; IC50 [29]: 741 nM; IC50 [30]: 3440 nM; IC50 [31]: 1620 nM; IC50 [32]: 1150 nM; IC50 [33]: 1520 nM; IC50 [34]: 1760 nM; IC50 [35]: 2440 nM; IC50 [36]: 2030 nM; IC50 [37]: 2460 nM
"CC(C)C[C@H](NC(=O)[C@H](Cc1ccccc1)NC(=O)c1cnccn1)B(O)O [bortezomib, reference compound]",4.77,4.53,13.7,12.5,53.1,29.5,12.8,6.79,6.83,7.37,4.75,13.2,7.17,8.42,28.8,8.36,5.15,8.4,6.78,13.8,IC50 [21]: 5.99 nM; IC50 [22]: 4.3 nM; IC50 [23]: 8.57 nM; IC50 [24]: 14.6 nM; IC50 [25]: 3.96 nM; IC50 [26]: 7.04 nM; IC50 [27]: 14.1 nM; IC50 [28]: 4.3 nM; IC50 [29]: 4.2 nM; IC50 [30]: 19.5 nM; IC50 [31]: 24 nM; IC50 [32]: 5.89 nM; IC50 [33]: 5.29 nM; IC50 [34]: 4.74 nM; IC50 [35]: 12.1 nM; IC50 [36]: 4.14 nM; IC50 [37]: 8.02 nM

# Reference: patent US20260015339A1, “CALIX[4]ARENES WITH HIGH ANTICANCER ACTIVITY” (UNIVERSITE GRENOBLE ALPES, priority 2023, published 2026)
